The conditions of data set [1]: weakly basic conditions; cited from earlier work.
The test system of data set [2] is Molt-4 cells. As to the kind of experiment: time course of cell killing alone and with BSO, Molt-4. The data set is classed as cell-based. Particulars: Molt-4, 2-3 day period; 4 μM drug, 1 mM BSO. On the procedure: (§1) Molt 4-cells were seeded at a density of 0.05×10^6 cell/ml in the recommended growth medium in the absence or the presence of drugs as indicated. Cells were incubated at 37° C. in a 5% CO2 atmosphere and proliferation was monitored in 14 hr. by cell counting in a hemacytometer. .smallcircle., untreated control; .circle-solid., treated with 4 μM 4-iodo-3-nitrobenzoic acid; .gradient., treated with 1 mM BSO; .tangle-soliddn., treated with 4 μM-iodo-3-nitrobenzoic acid and 1 mM BSO; .quadrature., treated with 4 μM 4-INO2 BA; .box-solid., treated with 1 mM BSO; .gradient., treated with 4 μM INO2 BA and 1 mM BSO. L-1210 cells were seeded at a density of 0.05×10^6 cells/ml either from untreated stock suspensions or from 24-hr. pretreated (0.2×10^6 cells/ml) suspensions. .smallcircle., untreated control; .circle-solid., treated with […] NOBA; .gradient., treated with 1 mM BSO; .tangle-soliddn., 24-hr pretreatment with 1 mM BSO then treated with 4 μM NOBA.
(§2) A time course of the cell killings by 4-iodo-3-nitrobenzoic acid, INO2 BA and NOBA, each alone and in combination with BSO was obtained. Molt-4 cells were seeded at a density of 0.05×10^6 cells/ml in the recommended growth medium in the absence or presence of drugs as indicated in FIG. 3. Drugs were added to the wells immediately after seeding from 10-40 mM stock solution in DMSO. BSO was added from a 100 mM aqueous stock solution. Cells were incubated at 37° C. in a 5% CO2 atmosphere and proliferation was monitored in 14 hours by cell counting in a hemacytometer.

Data set [3] concerns L-1210 cells. As to the kind of experiment: time course of cell killing alone and with BSO, L-1210. The data set is classed as cell-based, murine. Particulars: L-1210, 2-3 day period; 1 mM BSO. On the procedure: as §1, §2
Data set [4] deals with cellular GSH. As to the kind of experiment: cellular GSH levels under BSO. The data set is classed as cell-based. Particulars: at the concentrations applied. On the procedure: The role of cellular GSH was determined by the simultaneous addition of INO2 BA and BSO (an inhibitor of GSH biosynthesis, Meister, Pharmacology and Therapeutics 51:155-194 (1991), which at the concentrations applied diminished cellular GSH levels below 5-10% of controls.) The results are tabulated below in Table 3.

Data set [5] has as its system SIVmac239 or virus isolates in CEM ×174 cells. As to the kind of experiment: SIV replication in CEM ×174 cells, SIV p27 core antigen assay. The data set is classed as cell-based. From the text: Infected cell cultures described in FIG. 4 were used for determination of supernatant virus titers by SIV p27 core antigen assay as described in Example XIV. The ordinate represents p27 ELISA performed on day 10 of the assay and the abscissa represents the concentration of INO2 BA alone (rear rows in panels A, B and C) and in combination with BSO (front rows in panels A, B and C).
CEM ×174 cells (3×10^5 /ml) were infected with 3.75 TCID50 /ml (50% tissue culture infectious dosage per ml of cell suspension) stock solution of SIVmac239 or virus isolates from SIVmac239-infected rhesus macaques on day 0. Uniform infection of cells was ensured by the infection of one cell population only per virus preparation. Three days post-infection, the cells were distributed (500 μl/well) into individual wells of a 24-well plate. Fresh medium containing INO2 BA concentrations ranging from 0 to 300 μM and/or BSO concentrations ranging from 0 to 0.25 mM were added to establish final 1-ml reaction volumes, and the cultures were further incubated for 4 days. The wells were then replenished with fresh CEM ×174 cells (3×10^5 /ml), INO2 BA and/or BSO were re-added at the same concentrations as in the original incubates, and incubation was continued for an additional 3 days. This procedure intends to mimic conditions of in vivo chemotherapy. Cell viability and virus titers in the supernatant were determined on day 10 (3 days after the addition of new cells) by the tetrazolium (MTT) method of Hansen et al., J. Immunol. Methods 119:208-210 (1982) and by the SIV p27 and reverse transcriptase (RT) assays described by Chuang et al., FEBS Lett. 326:140-144 (1993), respectively.
SIVmac p27 core antigen levels were determined by an enzyme immunoassay provided by Coulter Corp. (Hialeah, Fla.). The assay was performed according to the manufacturer's specifications.

Data set [6] relates to SIV 23686 (AZT-resistant). As to the kind of experiment: AZT-resistant SIV propagation (syncytia formation), SIV 23686. The format is cell-based. Particulars: INO2 BA 0, BSO 0.01 mM. How it is done: (§3) CEM × 174 (3 × 10^5 /ml) were infected with equal doses o
(§4) SIVmac239 or virus isolates from SIVmac239infected rhesus macaques (MMU
(§5) 23686, 22803). Three days postinfection, INO2 BA concentrations
(§6) ranging from 0 to 300 μM with or without BSO were added, and incubated
(§7) for an additional 3 days. Cell cultures were then examined for syncytia
(§8) formation. The number of syncytia in cell cultures was counted in
(§9) arbitration fields under 40× magnification and scored as follows: […]

Data set [7] concerns SIV 22803 (AZT-resistant). As to the kind of experiment: AZT-resistant SIV propagation (syncytia formation), SIV 22803. The format is cell-based. Particulars: INO2 BA 0, BSO 0.05 mM. On the procedure: as §3, §4, §5, §6, §7, §8, §9
The conditions of data set [8]: literature; cited from earlier work.
The subject of data set [9] is tumor cells. Particulars: Hakam et al.; cited from earlier work.
The subject of data set [10] is MDA 468. As to the kind of experiment: effect of nitroso- and nitro-compounds in mammary cancer cells (monolayer), MDA 468. The data set is classed as cell-based, human. Particulars: drug exposure 24-48 hours. How it is done:
II. I50 and LD100 Values for Nitroso- and Nitro-Compounds in (A) Mammary Cancer Cells (monolayer cultures) and in (B) L-1210 Murine Leukemia Cells (suspension culture).
Seeding was at 2×10^4 or 0.8×10^4 cells/cm^2, drugs were added 6-18 hours after seeding, and drug exposure time was 24-48 hours.

Data set [11] has as its system pADPRT. As to the kind of experiment: pADPRT enzyme inactivation. The format is biochemical. Particulars: 2 hr at 25° C. On the procedure: FIG. 1 is a graph comparing the inactivation of pADPRT by NOBA and INOBA. pADPRT inactivation was performed in 20-μl volumes of buffer containing 50 mM Hepes (pH 7.4), 100 mM KCl, 0.5 mM EDTA, pADPRT (0.4 μg/μl) and different concentrations of inactivators. Inactivators were serially diluted in the above buffer from a 20 mM stock solution in DMF. The DMF concentration (2.5%) was kept constant in the inactivation mixes. After 2 hr. at 25° C., aliquots (3 μl) were removed for assay of enzyme activity in a volume of assay mix (200 μl) in which the inactivators were dilute enough not to act as inhibitors. The assay mix consisted of 100 mM Tris (pH 7.7), 14 mM 2-mercaptoethanol, 0.1 mM [^32 P]-NAD^+, 0.2 mg/ml coDNA and 0.1 mg/ml histones. The incorporated ^32 P, proportional to enzyme activity, is plotted as percent of the untreated sample.
NOBA and INOBA were assayed for their respective effects on pADPRT enzyme inactivation and pADPRT zinc content according to the methods described in Buki et al., FEBS Lett. 290:181-185 (1991) at pH 7.0. pADPRT inactivation was performed in 20-μl volumes of buffer containing 50 mM Hepes (pH 7.4), 100 mM KCl, 0.5 mM EDTA, pADPRT (0.4 μg/μl) and different concentrations of inactivators. Inactivators were serially diluted in the above buffer from a 20 mM stock solution in DMF. The DMF concentration (2.5%) was kept constant in the inactivation mixes. […]

For data set [12], the system named is pADPRT. As to the kind of experiment: pADPRT zinc content / zinc ejection. The format is biochemical. Particulars: 25° C. On the procedure:
FIG. 2A is a graph comparing the effects of NOBA and INOBA on the enzyme activity and zinc content of pADPRT. Inactivation was performed as described in Example III. In these experiments ^65 Zn^2+ -labeled pADPRT was used. The Zn^2+ content of pADPRT (upper panel) was determined as follows: two parallels of aliquots (4 μl) were pipetted into 500 μl of ice-cold washing solution (50 mM Tris, pH 7.7, 10 mM 2-mercaptoethanol and 0.5 mM EDTA) then filtered onto GF/C disks presoaked in washing solution (cold), quickly washed 4 times with 1 ml of ice-cold washing solution, dried, and the radioactivity determined. The protein-bound ^65 Zn^2+ is shown as percent of the untreated sample. Enzyme assays (lower panel) were performed as in FIG. 1.
For the release of Zn^2+ from transblotted pADPRT, the enzyme (3 μg per lane) was separated on SDS-PAGE, transblotted onto a nitrocellulose membrane, and renatured in the presence of ^65 ZnCl2. […] After incubation, 1 ml of the supernatant was counted for radioactivity, and the strips were washed 3 times with 2 ml of 50 mM Tris-HCl pH 7.4), 0.5 mM EDTA and 10 Mm 2-mercaptoethanol, and then dried and exposed to X-ray film. The intensity of the autoradiographic spots was quantitated by a scanner. […]

The nature of data set [13]: reduction by GSH and ascorbate in in vitro chemical tests. The format is physicochemical.

Entries after “also recorded” stand apart in the source; their conditions may differ. Where only a bound is given, the exact number is not on record here.

On to `NC(=O)c1cccc(N(O)S(=O)(=O)CC(N)C(=O)O)c1` (centres unmarked), for which the “release of C-nitroso molecule” value in [1] was “releases the C-nitroso molecule at weakly basic conditions”.

With `CCCCS(=N)(=O)CCC(N)C(=O)O` (racemic) [BSO, DL-buthionine sulfoximine, reference compound], the “effect on cell proliferation” value in [2] and in data set [3] was “no significant effect” throughout. The “cellular GSH level” value in data set [4] was 5-10 % of controls. Besides, in [5] (BSO alone, FIG. 5D), the “effect on p27 formation / SIV replication” value is listed as “no effect”. Also, the results for the Syncytia entry in [6] and in data set [7] were “+++ (20-30)” and “++++ (over 30)”, respectively. For the same compound, the “toxicity of BSO” value in [8] is given as “very low; also recorded: non-toxicity”.

Take `Nc1ccc2oc(=O)ccc2c1` [6-amino-1,2-benzopyrone]: in data set [9], the anti-tumor effects result was “anti-tumor effects”.

Regarding `O=c1ccc2c(I)c([N+](=O)[O-])ccc2o1` [INO2 BP, 5-iodo-6-nitro-1,2-benzopyrone], in data set [10], the I50 turned out to be 260 Namomoles/cm × 10^4 cells.

`NC(=O)c1ccc(I)c(N=O)c1` [INOBA, 4-Iodo-3-Nitrosobenzamide]: in data set [11], the “inactivation of pADPRT, NOBA vs INOBA” value is on record as “more effective inactivator of pADPRT”. The “time in which zinc ejection was complete” value in data set [12] was at most 2 h. Also, in [5] (with BSO, CEM ×174 cells), the “effect of GSH depletion by BSO on inhibitory effect on SIV replication” value was “synergistically enhances”. Moreover, in [13], the “reduction to the corresponding hydroxyl amines” value was “rapidly reduced”.
